Test results taken from patent US4875925A, “Herbicidal method using diflufenican” (May & Baker Limited, priority 1986, dated 1989).

Assays:
Type in all cases: in vivo
[1] = system: Alopecurus myosuroides; test: Greenhouse pre-emergence weed control, pendimethalin and diflufenican (Experiment 1); conditions: 22 days after treatment
Description: Greenhouse experiment showing the nature of biological synergism between pendimethalin and diflufenican applied pre-emergence
A factorial experiment with 30 treatments was carried out to investigate the interaction of pendimethalin and diflufenican at a wide range of doses i.e. 0, 250, 500, 1000 and 2000 g/ha of pendimethalin plus diflufenican at 0, 31, 62, 125, 250 and 500 g/ha.
All treatments were made in an appropriate volume of water by using appropriate quantities of a 33% w/v emulsifiable concentrate of pendimethalin (commercial product) and diflufenican formulated as an experimental aqueous suspension concentrate (Example 2 hereinafter) containing 50% w/v active ingredient to give the above dose rates in a spray volume of 290 l/ha. All treatments were applied using a laboratory sprayer fitted with a Sparying Systems Teejet SS 8003E operating at 2.94 kgf/cm^2. Treatments were applied to about 20 Alopecurus myosuroides seeds sown 1 cm deep in a loamy soil in 7.5 cm square pots. There were 4 replicate pots per treatment which were arranged in a randomised block design in a glasshouse after treatment. The pots were watered by a combination of overhead irrigation and sub-irrigation. A visual assessment of weed control was made 22 days after treatment as a percentage compared to the untreated pots. […]

[2] = system: Stellaria media; test: Greenhouse post-emergence weed control, Stellaria media (Experiment 2); conditions: 2 leaf stage, 14 days after treatment
Description: (§1) Greenhouse experiment showing the nature of biological synergism between pendimethalin and diflufenican applied post-emergence
(§2) A similar experiment to that hereinbefore described in Experiment 1 was carried out with pendimethalin and diflufenican applied to either 4 plants of Stellaria media at the 2 leaf stage or 4 plants of Galium aparine at the 2 whorl (branching initiated) stage. The following 90% herbicidally effective doses (ED90) in grams of diflufenican per hectare were calculated from the mean percentage weed control 14 days after treatment.

[3] = system: Galium aparine; test: Greenhouse post-emergence weed control, Galium aparine (Experiment 2); conditions: 2 whorl stage, 14 days after treatment
Description: as §1, §2

[4] = system: Lamium purpureum; test: Field control of Lamium purpureum in winter barley and winter wheat (Experiment 3); conditions: diflufenican 80 g/ha, trifluralin 800 g/ha, or both; for % weed phytotoxicity 72 days after spraying: in winter barley (variety Igri); for % weed phytotoxicity 98 days after spraying: in winter wheat (variety Galahad)
Excerpt: (§3) Diflufenican formulated as a 50% w/v aqueous suspension concentrate (Example 2), trifluralin as a 48% w/v emulsifiable concentrate (commercial product and a mixed formulation of diflufenican and trifluralin containing 44% w/v total active ingredient (Example 6) were applied at 0.16 l, 1.67 l and 2 l/ha respectively pre-emergence and just at emergence to winter barley and winter wheat to control Lamium purpureum pre-emergence under field conditions. The treatments were applied to three replicate 30 m^2 plots in a spray volume of 220 l/ha (winter barley) and 206 l/ha (winter wheat) using a motorised small plot sprayer. Visual % phytotoxicity was recorded and the results are given below.

[5] = system: Winter wheat (variety Galahad); test: Field crop phytotoxicity, winter wheat (Experiment 3); conditions: diflufenican 80 g/ha, trifluralin 800 g/ha, or both
Excerpt: as §3

[6] = system: Winter barley (variety Igri); test: Field crop phytotoxicity, winter barley (Experiment 3); conditions: diflufenican 80 g/ha, trifluralin 800 g/ha, or both
Excerpt: as §3

SMILES	ED50 of pendimethalin alone ([1]; pendimethalin alone) [g/ha]	ED90 of pendimethalin alone ([2]; pendimethalin alone) [g/ha]	ED90 of pendimethalin alone ([3]; pendimethalin alone)	% weed phytotoxicity 72 days after spraying [4] [%]	% weed phytotoxicity 98 days after spraying [4] [%]	Maximum % crop phytotoxicity [5] [%]	Maximum % crop phytotoxicity [6] [%]	ED50 (50% herbicidally effective dose) ([1]; diflufenican alone)	ED90 (90% herbicidally effective dose) ([2]; diflufenican alone)	ED90 (90% herbicidally effective dose) ([3]; diflufenican alone)
CCC(CC)Nc1c([N+](=O)[O-])cc(C)c(C)c1[N+](=O)[O-] [pendimethalin, N-(1-ethylpropyl)-3,4-dimethyl-2,6-dinitroaniline]	2071	1653	greater than 2000 g/ha	–	–	–	–	–	–	–
CCCN(CCC)c1c([N+](=O)[O-])cc(C(F)(F)F)cc1[N+](=O)[O-] [Trifluralin, 2,6-dinitro-N,N-dipropyl-4-trifluoromethylaniline]	–	–	–	20	5	0	0	–	–	–
O=C(Nc1ccc(F)cc1F)c1cccnc1Oc1cccc(C(F)(F)F)c1 [diflufenican, N-(2,4-difluorophenyl)-2-(3-trifluoromethylphenoxy)nicotinamide]	–	–	–	40	80	0	5.8	370 grams of diflufenican per hect	340 grams of diflufenican per hect	> 500 grams of diflufenican per hect
